What was measured:
[1] = Evaluation of total body clearance (CLtot), intravenous administration; assay type: in vivo, Sprague-Dawley (SD); settings: rat (SD), intravenous administration 0.5-10 mg/kg; CLtot = dose/AUC
How it was run: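 Compounds given as a single tail-vein injection at 0.5-10 mg/kg (n=2-3), dose varying by compound. Plasma sampled at scheduled times and measured by LC/MS/MS; CLtot derived as dose divided by AUC from pharmacokinetic analysis.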

[2] = Protein binding test (equilibrium dialysis, unbound ratio fu in serum); assay type: in vitro ADME; settings: rat serum, equilibrium dialysis 24 hours, 37° C., 2 μg/mL
Description: Assay condition: Evaluation method; Equilibrium dialysis method, Reaction time; 24 hours, Reaction temperature; 37° C., Assay concentration; 2 μg/mL A solution of the compound was added to each serum and mixed to prepare the serum samples with above concentration. The serum sample was put into one side of an equilibrium dialysis apparatus with dialysis membrane and phosphate buffered saline (PBS) was also put to another side of the apparatus. The apparatus was incubated at 37° C. for 24 hours. After incubation, the serum and PBS samples were collected and the compound concentrations in both samples were measured by LC/MS/MS. Fu was calculated by dividing the concentration in PBS by the concentration in the serum.

[3] = molecular target: HIV-1 PR (Human immunodeficiency virus type 1 group M subtype B, UniProt P04585); test: HIV-protease inhibitory activity assay (FRET peptide substrate); assay type: biochemical; settings: Test Example 1
How it was run: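 Compounds were preincubated with HIV-1 PR (0.83 ng) at room temperature in pH 4.8 NaAc buffer (0.5 M NaCl, EDTA, DTT, Tween 20), then HiLyte Fluor 488/QXL 520 FRET peptide (2 μmol/L final) was added for 60 min. Fluorescence was read at 485/535 nm, and IC50 was fitted by four-parameter logistic regression.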

| SMILES | rat_CLt [1] | rat_fu [2] | IC50 [3] |
| --- | --- | --- | --- |
| COc1ccc(S(=O)(=O)N(CC(C)C)CC(O)C(Cc2ccc(OCc3ncccc3-c3sc4c(c3C(=O)O)CC(C)(C)CC4)cc2)NC(=O)OC2COC3(C)OCCC23)cc1 (stereo not drawn) [Compound I-88] | 2.5 mL/min/kg | <0.1% | 0.86 nM |
| COc1ccc(S(=O)(=O)N(CC(C)C)C[C@@H](O)[C@H](Cc2ccc(NC[C@H]3CCCC[C@H]3c3sc4c(c3C(=O)O)CC(C)(C)CC4)cc2)NC(=O)O[C@H]2CO[C@@]3(C)OCC[C@@H]23)cc1 [Compound I-247] | 0.148 mL/min/kg | <0.1% | 2.25 nM |
| COc1ccc(S(=O)(=O)N(CC(C)C)CC(O)C(Cc2ccc(N3CCC(Oc4ccc(-c5sc6c(c5C(=O)O)CC(C)(C)CC6)cc4)C3)cc2)NC(=O)OC2COC3(C)OCCC23)cc1 (stereo not drawn) [Compound I-351] | 3.08 mL/min/kg | <0.1% | 5.09 nM |
| COc1ccc(S(=O)(=O)N(CC(C)C)CC(O)C(Cc2ccc(NCc3cnc4ccccc4c3-c3sc4c(c3C(=O)O)CC(C)(C)CC4)cc2)NC(=O)OC2COC3(C)OCCC23)cc1 (stereo not drawn) [Compound I-384] | 0.253 mL/min/kg | <0.1% | 6.62 nM |
| COc1ccc(S(=O)(=O)N(CC(C)C)CC(O)C(Cc2ccc(NCc3ccc(F)cc3-c3sc4c(c3C(=O)O)CC(C)(C)CC4)cc2)NC(=O)OC2COC3(C)OCCC23)cc1 (stereo not drawn) [Compound I-275] | 2.12 mL/min/kg | <0.1% | 2.11 nM |
| COc1ccc(S(=O)(=O)N(CC(C)C)CC(O)C(Cc2ccc(OC3CN(c4cc(C(F)(F)F)ccc4-c4sc5c(c4C(=O)O)CC(C)(C)CC5)C3)cc2)NC(=O)OC2COC3(C)OCCC23)cc1 (stereo not drawn) [Compound I-354] | 0.0682 mL/min/kg | <0.1% | 44.2 nM |
| COc1ccc(S(=O)(=O)N(CC(C)C)CC(O)C(Cc2ccc(NCc3cccc(F)c3-c3sc4c(c3C(=O)O)CC(C)(C)CC4)cc2)NC(=O)OC2COC3(C)OCCC23)cc1 (stereo not drawn) [Compound I-277] | 0.512 mL/min/kg | <0.1% | 1.94 nM |
| COc1ccc(S(=O)(=O)N(CC(C)C)CC(O)C(Cc2ccc(OCc3ccccc3-c3sc4c(c3C(=O)O)CC(C)(C)CC4)cc2)NC(=O)OC2COC3(C)OCC(OCc4ccccc4)C23)cc1 (stereo not drawn) [Compound I-55] | 0.752 mL/min/kg | <0.1% | 7.34 nM |
| COc1ccc(S(=O)(=O)N(CC(C)C)CC(O)C(Cc2ccc(NCc3cccc(-c4sc5c(c4C(=O)O)CC(C)(C)CC5)c3C)cc2)NC(=O)OC2COC3(C)OCCC23)cc1 (stereo not drawn) [Compound I-292] | 0.166 mL/min/kg | <0.1% | 2.68 nM |
| COc1ccc(S(=O)(=O)N(CC2CCCC2)CC(O)C(Cc2ccc(OCc3ccccc3-n3nc4c(c3C(=O)O)CC(C(C)(C)C)CC4)cc2)NC(=O)OC2COC3(C)OCCC23)cc1 (stereo not drawn) [Compound I-145] | 1.29 mL/min/kg | <0.1% | 0.81 nM |
| COc1ccc(S(=O)(=O)N(CC(C)C)CC(O)C(Cc2ccc(SCc3ccccc3-c3sc4c(c3C(=O)O)CC(C)(C)CC4)cc2)NC(=O)OC2COC3(C)OCCC23)cc1 (stereo not drawn) [Compound I-380] | 0.702 mL/min/kg | <0.1% | 5.51 nM |
| COc1ccc(S(=O)(=O)N(CC(C)C)CC(O)C(Cc2ccc(NCc3ccc(OC)cc3-c3sc4c(c3C(=O)O)CC(C)(C)CC4)cc2)NC(=O)OC2COC3(C)OCCC23)cc1 (stereo not drawn) [Compound I-274] | 0.659 mL/min/kg | <0.1% | 2.11 nM |
| COc1ccc(S(=O)(=O)N(CC2CCC(=O)N2)CC(O)C(Cc2ccc(OCc3ccccc3-c3sc4c(c3C(=O)O)CC(C)(C)CC4)cc2)NC(=O)OC2COC3(C)OCCC23)cc1 (stereo not drawn) [Compound I-148] | 2.5 mL/min/kg | <0.1% | 1.16 nM |
| COc1ccc(S(=O)(=O)N(CC(C)C)CC(O)C(Cc2ccc(OCC3=C(c4sc5c(c4C(=O)O)CC(C)(C)CC5)CCCC3)cc2)NC(=O)OC2COC3(C)OCCC23)cc1 (stereo not drawn) [Compound I-243] | 0.477 mL/min/kg | <0.1% | 4.24 nM |
| COc1ccc(S(=O)(=O)N(CC(C)C)CC(O)C(Cc2ccc(OCc3ccccc3-n3nc4c(c3C(=O)O)CC(C)(C)CC4)cc2)NC(=O)OC2COC3OCCC23)cc1 (stereo not drawn) [Compound I-807] | 0.61 mL/min/kg | <0.1% | 0.86 nM |
| COc1ccc(S(=O)(=O)N(CC(C)C)CC(O)C(Cc2ccc(OCc3ccccc3-c3sc(N(C4CCCCC4)C4CCCCC4)nc3C(=O)O)cc2)NC(=O)OC2COC3(C)OCCC23)cc1 (stereo not drawn) [Compound I-74] | 3.88 mL/min/kg | <0.1% | 1.71 nM |

| SMILES | rat_CLt [1] | rat_fu [2] | IC50 [3] |
| --- | --- | --- | --- |
| COC(=O)NC(C(=O)NC(Cc1ccc(-c2sc3c(c2C(=O)O)CC(C)(C)CC3)cc1)C(O)CC(Cc1ccccc1F)C(=O)NC1c2cc(F)cc(Cl)c2OCC1O)C(C)(C)C (stereo not drawn) [Compound I-903] | 0.0436 mL/min/kg | <0.1% | 2.23 nM |
| COc1ccc(S(=O)(=O)N(CC(C)C)CC(O)C(Cc2ccc(NC3Cc4cccc(-c5sc6c(c5C(=O)O)CC(C)(C)CC6)c4C3)cc2)NC(=O)OC2COC3(C)OCCC23)cc1 (stereo not drawn) [Compound I-241] | 0.404 mL/min/kg | <0.1% | 2.95 nM |
| COc1ccc(S(=O)(=O)N(CC(C)C)CC(O)C(Cc2ccc(OCc3ccccc3-c3sc4c(c3C(=O)O)CC(C)(C)CC4)cc2)NC(=O)OC2COC3(CO)OCCC23)cc1 (stereo not drawn) [Compound I-99] | 0.576 mL/min/kg | <0.1% | 0.81 nM |
| COc1ccc(S(=O)(=O)N(CC(C)C)CC(O)C(Cc2ccc(OCc3ccccc3-c3sc4c(c3C(=O)O)CC(C)(C)CC4)cc2)NC(=O)OC2CC3OCC(O)C3C2)cc1 (stereo not drawn) [Compound I-29] | 1.54 mL/min/kg | <0.1% | 1.41 nM |
| COc1ccc(S(=O)(=O)N(CC2CCCC2)CC(O)C(Cc2ccc(OCc3cc(C(F)(F)F)ccc3-c3nc4n(c3C(=O)O)CCCC4)cc2)NC(=O)OC2COC3(C)OCCC23)cc1 (stereo not drawn) [Compound I-205] | 1.68 mL/min/kg | <0.1% | 2.03 nM |
| COc1ccc(S(=O)(=O)N(CC(C)C)CC(O)C(Cc2ccc(N(Cc3ccccc3)Cc3sc4c(c3C(=O)O)CC(C)(C)CC4)cc2)NC(=O)OC2COC3(C)OCCC23)cc1 (stereo not drawn) [Compound I-47] | 3.51 mL/min/kg | <0.1% | 5.41 nM |
| COc1ccc(S(=O)(=O)N(CC(C)C)C[C@@H](O)[C@H](Cc2ccc(OCc3ccccc3C(=O)Nc3sc4c(c3C(=O)O)CC(C)(C)CC4)cc2)NC(=O)O[C@H]2CO[C@@]3(C)OCC[C@@H]23)cc1 [Compound I-268] | 0.0553 mL/min/kg | <0.1% | 4.46 nM |
| COc1ccc(S(=O)(=O)N(CC(C)C)CC(O)C(Cc2ccc(OCc3ccccc3-c3sc4c(c3C(=O)O)CC(C)(C)CC4)cc2)NC(=O)OC2COC3OCCC23)cc1 (stereo not drawn) [Compound I-826] | 0.823 mL/min/kg | <0.1% | 1.18 nM |
| COc1ccc(S(=O)(=O)N(CC(C)C)CC(O)C(Cc2ccc(N3CC(Oc4ccccc4-c4sc5c(c4C(=O)O)CC(C)(C)CC5)C3)cc2)NC(=O)OC2COC3(C)OCCC23)cc1 (stereo not drawn) [Compound I-357] | 1.55 mL/min/kg | <0.1% | 4.41 nM |
| COc1ccc(S(=O)(=O)N(CC(C)C)CC(O)C(Cc2ccc(OCc3ncccc3-c3sc4c(c3C(=O)O)CC(C)(C)CC4)cc2)NC(=O)OC2COC3OCCC23)cc1 (stereo not drawn) [Compound I-827] | 4.21 mL/min/kg | <0.1% | 0.81 nM |
| COc1ccc(S(=O)(=O)N(CC(C)C)C[C@@H](O)[C@H](Cc2ccc(O[C@@H]3CCN(c4ccccc4-c4sc5c(c4C(=O)O)CC(C)(C)CC5)C3)cc2)NC(=O)O[C@H]2CO[C@@]3(C)OCC[C@@H]23)cc1 [Compound I-6] | 1.22 mL/min/kg | <0.1% | 1.36 nM |
| COc1ccc(S(=O)(=O)N(CC(C)C)CC(O)C(Cc2ccc(OCc3ncc(Cl)cc3-c3sc4c(c3C(=O)O)CC(C)(C)CC4)cc2)NC(=O)OC2COC3(C)OCCC23)cc1 (stereo not drawn) [Compound I-93] | 2.22 mL/min/kg | <0.1% | 0.99 nM |
| COc1ccc(S(=O)(=O)N(CC(C)C)CC(O)C(Cc2ccc(CN(C)c3ccc(-c4sc5c(c4C(=O)O)CC(C)(C)CC5)cc3)cc2)NC(=O)OC2COC3(C)OCCC23)cc1 (stereo not drawn) [Compound I-265] | 4.01 mL/min/kg | <0.1% | 5.07 nM |
| COc1ccc(S(=O)(=O)N(CC(C)C)C[C@@H](O)[C@H](Cc2ccc(OCc3ccccc3-c3sc4c(c3C(=O)O)CC(C)(C)CC4)cc2)NC(=O)O[C@H]2CO[C@@]3(C)OCC[C@@H]23)cc1 [Compound I-1] | 0.542 mL/min/kg | <0.1% | 1.29 nM |
| COc1ccc(S(=O)(=O)N(CC(C)C)CC(O)C(Cc2ccc(NCc3ccc(C)cc3-c3sc4c(c3C(=O)O)CC(C)(C)CC4)cc2)NC(=O)OC2COC3(C)OCCC23)cc1 (stereo not drawn) [Compound I-272] | 0.715 mL/min/kg | <0.1% | 2.11 nM |

Source: patent US20170253607A1, “LONG-ACTING HIV PROTEASE INHIBITOR” (Shionogi & Co., Ltd., priority 2014, published 2017)
